Assay results from US9029337B2, “Modulation of factor 7 expression” (Isis Pharmaceuticals, Inc., priority 2007, dated 2015).
Strand notation (5' to 3'): a small letter for the sugar, then the base; units joined by * are phosphorothioate-linked, units joined directly phosphodiester-linked; [ ] holds rarer units or linkages, { } end groups; capitals alone tell only the bases. e = 2'-O-(2-methoxyethyl) (MOE); [5mC] = 5-methylcytosine; d = 2'-deoxy (DNA)

What was measured:
human Factor 7 mRNA [1] = assay: Dose-dependent antisense inhibition of human Factor 7 in HepB3 cells, lipofectin; assay type: cell-based; settings: for percent inhibition of Factor 7 mRNA, relative to untreated control cells: HepB3 cells, approx. 16 hours (Table 14); for percent inhibition of Factor 7: approximately 16 hours
Procedure, shortened: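 HepB3 cells (4,000/well) lipofectin-transfected with antisense oligonucleotide at 3.125 or 6.25 up to 100 nM for ~16 h. Factor 7 mRNA measured by real-time RT-PCR with primer probe set RTS 2927, adjusted to RIBOGREEN total RNA; expressed as percent inhibition versus untreated control cells.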

human Factor 7 mRNA [2] = assay: Dose-dependent antisense inhibition of human Factor 7 in HepB3 cells, electroporation; assay type: cell-based
Procedure, shortened: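 HepB3 cells, 20,000/well, electroporated with gapmers at 3.125–100 μM; about 16 h treatment. Factor 7 mRNA by qRT-PCR with primer probe set RTS 2927, normalized to RIBOGREEN total RNA; percent inhibition versus untreated cells.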

[3] = 3.125 μM, approx. 16 hours (Table 15, Example 7)
[4] = 3.125 μM, approx. 16 hours (Table 16, Example 8 confirmation)
[5] = 6.25 μM, approx. 16 hours (Table 15, Example 7)
[6] = 6.25 μM, approx. 16 hours (Table 16, Example 8 confirmation)
[7] = 12.5 μM, approx. 16 hours (Table 15, Example 7)
[8] = 12.5 μM, approx. 16 hours (Table 16, Example 8 confirmation)
[9] = 25 μM, approx. 16 hours (Table 15, Example 7)
[10] = 25 μM, approx. 16 hours (Table 16, Example 8 confirmation)
[11] = 50 μM, approx. 16 hours (Table 15, Example 7)
[12] = 50 μM, approx. 16 hours (Table 16, Example 8 confirmation)
[13] = 100 μM, approx. 16 hours (Table 15, Example 7)
[14] = 100 μM, approx. 16 hours (Table 16, Example 8 confirmation)

| Substance | percent inhibition of Factor 7 mRNA, relative to untreated control cells (human Factor 7 mRNA [1]; 3.125 nM) | percent inhibition of Factor 7 mRNA, relative to untreated control cells (human Factor 7 mRNA [1]; 12.5 nM) | percent inhibition of Factor 7 mRNA, relative to untreated control cells (human Factor 7 mRNA [1]; 25 nM) | percent inhibition of Factor 7 mRNA, relative to untreated control cells (human Factor 7 mRNA [1]; 50 nM) | percent inhibition of Factor 7 mRNA, relative to untreated control cells (human Factor 7 mRNA [1]; 100 nM) | percent inhibition of Factor 7 mRNA, relative to untreated control cells (human Factor 7 mRNA [1]) | percent inhibition of Factor 7 (human Factor 7 mRNA [1]; Table 3, 3.125 nM) | percent inhibition of Factor 7 (human Factor 7 mRNA [1]; Table 3, 6.25 nM) | percent inhibition of Factor 7 (human Factor 7 mRNA [1]; Table 3, 12.5 nM) | percent inhibition of Factor 7 (human Factor 7 mRNA [1]; Table 3, 25.0 nM) | percent inhibition of Factor 7 (human Factor 7 mRNA [1]; Table 3, 50.0 nM) | percent inhibition of Factor 7 (human Factor 7 mRNA [1]; Table 3, 100.0 nM) | percent inhibition of Factor 7 (human Factor 7 mRNA [1]; Table 7, 6.25 nM) | percent inhibition of Factor 7 (human Factor 7 mRNA [1]; Table 7, 12.5 nM) | percent inhibition of Factor 7 (human Factor 7 mRNA [1]; Table 7, 25.0 nM) | percent inhibition of Factor 7 (human Factor 7 mRNA [1]; Table 7, 50.0 nM) | percent inhibition of Factor 7 (human Factor 7 mRNA [1]; Table 7, 100.0 nM) | percent inhibition of Factor 7 mRNA, relative to untreated control cells (human Factor 7 mRNA [2]; [3]) | percent inhibition of Factor 7 mRNA, relative to untreated control cells (human Factor 7 mRNA [2]; [4]) | percent inhibition of Factor 7 mRNA, relative to untreated control cells (human Factor 7 mRNA [2]; [5]) | further results |
| --- | --- | --- | --- | --- | --- | --- | --- | --- | --- | --- | --- | --- | --- | --- | --- | --- | --- | --- | --- | --- | --- |
| 407935 (antisense eA*eT*eG*e[5mC]*eA*dT*dG*dG*dT*dG*dA*dT*dG*d[5mC]*dT*eT*e[5mC]*eT*eG*eA) [compound 407935] | 19% | 58% | 70% | 85% | 87% | 39% | 57% | 76% | 78% | 89% | 90% | 89% | 38% | 53% | 70% | 82% | 86% | 37% | 63% | 47% | percent inhibition of Factor 7 mRNA, relative to untreated control cells (human Factor 7 mRNA [2]; [6]): 79%; percent inhibition of Factor 7 mRNA, relative to untreated control cells (human Factor 7 mRNA [2]; [7]): 67%; percent inhibition of Factor 7 mRNA, relative to untreated control cells (human Factor 7 mRNA [2]; [8]): 84%; percent inhibition of Factor 7 mRNA, relative to untreated control cells (human Factor 7 mRNA [2]; [9]): 73%; percent inhibition of Factor 7 mRNA, relative to untreated control cells (human Factor 7 mRNA [2]; [10]): 90%; percent inhibition of Factor 7 mRNA, relative to untreated control cells (human Factor 7 mRNA [2]; [11]): 80%; percent inhibition of Factor 7 mRNA, relative to untreated control cells (human Factor 7 mRNA [2]; [12]): 90%; percent inhibition of Factor 7 mRNA, relative to untreated control cells (human Factor 7 mRNA [2]; [13]): 87%; percent inhibition of Factor 7 mRNA, relative to untreated control cells (human Factor 7 mRNA [2]; [14]): 91% |
| 407939 (antisense eT*eG*e[5mC]*eA*eG*d[5mC]*d[5mC]*d[5mC]*dG*dG*d[5mC]*dA*d[5mC]*d[5mC]*d[5mC]*eA*eG*e[5mC]*eG*eA) [compound 407939] | 17% | 57% | 75% | 80% | 83% | 35% | 62% | 79% | 83% | 91% | 92% | 92% | 37% | 57% | 77% | 84% | 87% | 18% | 35% | 28% | percent inhibition of Factor 7 mRNA, relative to untreated control cells (human Factor 7 mRNA [2]; [6]): 60%; percent inhibition of Factor 7 mRNA, relative to untreated control cells (human Factor 7 mRNA [2]; [7]): 42%; percent inhibition of Factor 7 mRNA, relative to untreated control cells (human Factor 7 mRNA [2]; [8]): 60%; percent inhibition of Factor 7 mRNA, relative to untreated control cells (human Factor 7 mRNA [2]; [9]): 56%; percent inhibition of Factor 7 mRNA, relative to untreated control cells (human Factor 7 mRNA [2]; [10]): 73%; percent inhibition of Factor 7 mRNA, relative to untreated control cells (human Factor 7 mRNA [2]; [11]): 68%; percent inhibition of Factor 7 mRNA, relative to untreated control cells (human Factor 7 mRNA [2]; [12]): 81%; percent inhibition of Factor 7 mRNA, relative to untreated control cells (human Factor 7 mRNA [2]; [13]): 82%; percent inhibition of Factor 7 mRNA, relative to untreated control cells (human Factor 7 mRNA [2]; [14]): 83% |
